What follows are compounds tested against Recombinant human Mat2a (Homo sapiens (Human), UniProt P31153) (assay: Determination of Mat2A activity (384 well absorbance-based assay, Biomol Green)). Details: 12.5 nM Mat2A, 100 μM ATP and Methionine, 2% DMSO, 120 minutes at RT, absorbance at 635 nm; read-out: MAT2A_LEC IC50 (uM) (Num).
Format: biochemical
Experimental: Determination of Mat2A Activity
Measurement of Mat2A inhibition is performed in 384 well format absorbance-based assay. Recombinant human Mat2a (12.5 nM) and serial diluted compounds in DMSO (range of concentrations from 10 μM to 508 pM) or controls (DMSO) are incubated for 15 minutes at room temperature (RT) in assay buffer containing 50 mM HEPES pH 7.5, 50 mM KCl, 50 mM MgCl2, 0.01%Tween 20 and 10 mM DTT. The reaction is initiated by the addition of the combined substrates ATP and Methionine, each at a final concentration of 100 μM. Final assay condition are 12.5 nM Mat2A, 100 μM ATP and Methionine Substrates and 2% DMSO. After 120 minutes of incubation at RT, the reaction is stopped by the addition of Biomol Green. The absorbance signal is measured at λ=635 nm with a multiplate reader (BMG Pherastar reader or equivalent) after 30 min of equilibration at RT.

Recombinant human Mat2a, sequence (P31153 whole entry): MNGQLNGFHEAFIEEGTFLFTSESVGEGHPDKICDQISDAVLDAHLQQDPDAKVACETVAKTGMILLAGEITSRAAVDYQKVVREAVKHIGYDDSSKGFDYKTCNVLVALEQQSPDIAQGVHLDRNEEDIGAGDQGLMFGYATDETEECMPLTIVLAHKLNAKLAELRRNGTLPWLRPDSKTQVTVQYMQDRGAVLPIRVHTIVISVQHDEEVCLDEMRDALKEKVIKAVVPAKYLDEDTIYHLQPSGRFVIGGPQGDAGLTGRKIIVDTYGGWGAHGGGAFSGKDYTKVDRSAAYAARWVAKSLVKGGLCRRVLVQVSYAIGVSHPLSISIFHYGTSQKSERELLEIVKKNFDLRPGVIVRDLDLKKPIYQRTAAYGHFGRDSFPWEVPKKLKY

IC50 [µM] | Structure (SMILES)
< 0.013 | Cc1cc(-c2nccc3[nH]nc(OC(F)F)c23)ccc1S(C)(=O)=O [Example 57, 3-(difluoromethoxy)-4-(3-methyl-4-(methylsulfonyl)phenyl)-1H-pyrazolo[4,3-c]pyridinepyridine]
< 0.013 | Cc1cc(-c2c(C(=O)O)ncc3[nH]nc(C4CC4)c23)ccc1S(C)(=O)=O [Example 62, 3-cyclopropyl-4-(3-methyl-4-(methylsulfonyl)phenyl)-1H-pyrazolo[3,4-c]pyridine-5-carboxylic acid]
0.12 | Cc1cc(-c2nccc3[nH]nc(OC(F)F)c23)ccc1S(=O)(=O)C1COC1 [Example 35, 3-(difluoromethoxy)-4-[3-methyl-4-(oxetan-3-ylsulfonyl)phenyl]-1H-pyrazolo[4,3-c]pyridine]
0.19 | Cc1cc(-c2nccc3[nH]nc(Br)c23)ccc1S(C)(=O)=O [Example 56, 3-bromo-4-(3-methyl-4-(methylsulfonyl)phenyl)-1H-pyrazolo[4,3-c]pyridine]
0.1 | Cc1cc(-c2nccc3[nH]nc(OC(F)F)c23)ccc1S(=O)(=O)C1(C)CC1 [Example 37, 3-(difluoromethoxy)-4-[3-methyl-4-(1-methylcyclopropyl)sulfonyl-phenyl]-1H-pyrazolo[4,3-c]pyridine]
0.013 | Cc1cc(-c2c(C(=O)NC3COC3)ncc3[nH]nc(OC(F)F)c23)ccc1S(=O)(=O)C(F)F [Example 107, 3-(difluoromethoxy)-4-[4-(difluoromethylsulfonyl)-3-methyl-phenyl]-N-(oxetan-3-yl)-1H-pyrazolo[3,4-c]pyridine-5-carboxamide]
< 0.013 | Cc1cc(-c2c(C#N)ccc3[nH]nc(C4CC4)c23)ccc1S(C)(=O)=O [Example 63, 3-cyclopropyl-4-(3-methyl-4-methylsulfonylphenyl)-1H-indazole-5-carbonitrile]
0.28 | CS(=O)(=O)c1ccc(-c2nccc3[nH]nc(C(F)(F)F)c23)cc1 [Example 11, 4-(4-(methylsulfonyl)phenyl)-3-(trifluoromethyl)-1H-pyrazolo[4,3-c]pyridine]
0.062 | Cc1cc([S+](C)[O-])c(C(F)F)cc1-c1c(C#N)ncc2[nH]nc(OC(F)F)c12 (stereo not drawn) [Example 53, 3-(difluoromethoxy)-4-[5-(difluoromethyl)-2-methyl-4-methylsulfinyl-phenyl]-1H-pyrazolo[3,4-c]pyridine-5-carbonitrile]
< 0.013 | Cc1cc(-c2c(C(F)(F)F)ncc3[nH]nc(C4CC4)c23)ccc1S(C)(=O)=O [Example 79, 3-cyclopropyl-4-(3-methyl-4-methylsulfonylphenyl)-5-(trifluoromethyl)-1H-pyrazolo[3,4-c]pyridine]
< 0.013 | CNC(=O)c1ncc2[nH]nc(C3CC3)c2c1-c1cc(C)c(S(C)(=O)=O)cc1F [Example 97, 3-cyclopropyl-4-(2-fluoro-5-methyl-4-methylsulfonyl-phenyl)-N-methyl-1H-pyrazolo[3,4-c]pyridine-5-carboxamide]
< 0.013 | Cc1cc(-n2c(=O)ccc3[nH]nc(OC(F)(F)F)c32)ccc1S(C)(=O)=O [Example 91, 4-(3-methyl-4-methylsulfonyl-phenyl)-3-(trifluoromethoxy)-1H-pyrazolo[4,3-b]pyridin-5-one]
0.013 | Cc1cc(-c2nccc3[nH]nc(OC(F)F)c23)ccc1S(=O)(=O)C(F)F [Example 25, 3-(difluoromethoxy)-4-[4-(difluoromethylsulfonyl)-3-methyl-phenyl]-1H-pyrazolo[4,3-c]pyridine]
0.02 | Cc1cc(-c2c(C#N)ccc3[nH]cc(C4CC4)c23)ccc1S(C)(=O)=O [Example 45, 3-cyclopropyl-4-(3-methyl-4-methylsulfonylphenyl)-1H-indole-5-carbonitrile]
0.31 | CN=S(C)(=O)c1ccc2[nH]nc(C3CC3)c2c1-c1ccc(S(C)(=O)=O)c(C)c1 (stereo not drawn) [Example 113, [3-cyclopropyl-4-(3-methyl-4-methylsulfonyl-phenyl)-1H-indazol-5-yl]-methyl-methylimino-oxo-λ^6-sulfane]
0.51 | Cc1cc(-c2nccc3[nH]nc(C4COC4)c23)ccc1S(C)(=O)=O [Example 28, 4-(3-methyl-4-methylsulfonyl-phenyl)-3-(oxetan-3-yl)-1H-pyrazolo[4,3-c]pyridine]
< 0.013 | CNC(=O)c1ncc2[nH]nc(C3CC3)c2c1-c1ccc(S(C)(=O)=O)c(C(F)F)c1 [Example 51, 3-cyclopropyl-4-[3-(difluoromethyl)-4-methylsulfonyl-phenyl]-N-methyl-1H-pyrazolo[3,4-c]pyridine-5-carboxamide]
0.2 | Cc1cc(-c2ncc(O)c3[nH]nc(C4CC4)c23)ccc1S(C)(=O)=O [Example 64, 3-cyclopropyl-4-(3-methyl-4-methylsulfonyl-phenyl)-1H-pyrazolo[4,3-c]pyridin-7-ol]

IC50 [µM] | Structure (SMILES)
0.37 | COc1cc(-c2nccc3[nH]nc(C4CC4)c23)ccc1S(C)(=O)=O [Example 2, 3-cyclopropyl-4-(3-methoxy-4-(methylsulfonyl)phenyl)-1H-pyrazolo[4,3-c]pyridine]
< 0.013 | CCS(=O)(=O)c1ccc(-c2nccc3[nH]nc(OC(F)F)c23)cc1C [Example 27, 3-(difluoromethoxy)-4-(4-ethylsulfonyl-3-methyl-phenyl)-1H-pyrazolo[4,3-c]pyridine]
< 0.013 | Cc1cc(-c2nc(Cl)cc3[nH]nc(C4CC4)c23)ccc1S(C)(=O)=O [Example 34, 6-chloro-3-cyclopropyl-4-(3-methyl-4-methylsulfonylphenyl)-1H-pyrazolo[4,3-c]pyridine]
0.11 | Cc1cc(-c2nncc3[nH]nc(C4CC4)c23)ccc1S(C)(=O)=O [Example 74, 3-cyclopropyl-4-(3-methyl-4-(methylsulfonyl)phenyl)-1H-pyrazolo[3,4-d]pyridazine]
0.24 | CN(C)S(=O)(=O)c1ccc(-c2nccc3[nH]nc(C4CC4)c23)cc1Cl [Example 9, 2-chloro-4-(3-cyclopropyl-1H-pyrazolo[4,3-c]pyridin-4-yl)-N,N-dimethylbenzenesulfonamide]
0.27 | Cc1cc(-c2nccc3[nH]nc(C4CC4)c23)ccc1S(=O)(=O)C1COC1 [Example 15, 3-cyclopropyl-4-(3-methyl-4-(oxetan-3-ylsulfonyl)phenyl)-1H-pyrazolo[4,3-c]pyridine]
< 0.013 | Cc1cc(-c2nccc3[nH]nc(OC(F)F)c23)ccc1S(=O)(=O)C(C)C [Example 32]
< 0.013 | Cc1cc(-c2c(OC(F)F)ncc3[nH]nc(C4CC4)c23)ccc1S(C)(=O)=O [Example 82, 3-cyclopropyl-5-(difluoromethoxy)-4-(3-methyl-4-(methylsulfonyl)phenyl)-1H-pyrazolo[3,4-c]pyridine]
0.13 | CN(C)S(=O)(=O)c1ccc(-c2nccc3[nH]nc(OC(F)F)c23)cc1C(F)F [Example 48, 4-[3-(difluoromethoxy)-1H-pyrazolo[4,3-c]pyridin-4-yl]-2-(difluoromethvl)-N,N-dimethyl-benzenesulfonamide]
0.04 | Cc1cc(-c2ncc(NCCCN)c3[nH]nc(C4CC4)c23)ccc1S(C)(=O)=O [Example 104, N′-[3-cyclopropyl-4-(3-methyl-4-methylsulfonyl-phenyl)-1H-pyrazolo[4,3-c]pyridin-7-yl]propane-1,3-diamine]
< 0.013 | COc1n[nH]c2ccc(C#N)c(-c3ccc(S(C)(=O)=O)c(C)c3)c12 [Example 68, 3-methoxy-4-(3-methyl-4-(methylsulfonyl)phenyl)-1H-indazole-5-carbonitrile]
< 0.013 | Cc1cc(-c2c(C#N)ncc3[nH]nc(C4CC4)c23)ccc1S(C)(=O)=O [Example 16, 3-cyclopropyl-4-(3-methyl-4-(methylsulfonyl)phenyl)-1H-pyrazolo[3,4-c]pyridine-5-carbonitrile]
< 0.013 | CNC(=O)c1c(F)cc2[nH]nc(C3CC3)c2c1-c1ccc(S(C)(=O)=O)c(C)c1 [Example 88, 3-cyclopropyl-6-fluoro-N-methyl-4-(3-methyl-4-(methylsulfonyl)phenyl)-1H-indazole-5-carboxamide]
0.031 | Cc1cc(-n2c(=O)c(C)cc3[nH]nc(C4CC4)c32)ccc1S(C)(=O)=O [Example 80, 3-cyclopropyl-6-methyl-4-(3-methyl-4-methylsulfonyl-phenyl)-1H-pyrazolo[4,3-b]pyridin-5-one]
0.056 | Cc1cc(-c2nccc3[nH]nc(C4CC4)c23)c(F)cc1S(C)(=O)=O [Example 21, 3-cyclopropyl-4-(2-fluoro-5-methyl-4-methylsulfonyl-phenyl)-1H-pyrazolo[4,3-c]pyridine]
0.033 | CS(=O)(=O)c1ccc(-c2nccc3[nH]nc(OC(F)F)c23)cc1C(F)F [Example 31]
0.029 | Cc1cc(-c2nccc3[nH]cc(C(F)(F)F)c23)ccc1S(C)(=O)=O [Example 40, 4-(3-methyl-4-(methylsulfonyl)phenyl)-3-(trifluoromethyl)-1H-pyrrolo[3,2-c]pyridine]

Structure (SMILES) | IC50 [µM]
CNC(=O)c1ncc2[nH]nc(C3CC3)c2c1-c1ccc(S(=O)(=O)C2CC2)c(C)c1 [Example 89, 3-cyclopropyl-4-(4-cyclopropylsulfonyl-3-methyl-phenyl)-N-methyl-1H-pyrazolo[3,4-c]pyridine-5-carboxamide] | 0.035

Source: patent publication US12565497B2 (Hoffmann-La Roche Inc., priority 2020, dated 2026)
